# How the values were obtained:
# Assay in all cases: Kinase profiling in a biochemical assay panel (mobility shift assays and ELISA), %-inhibition at 1 μM; selectivity entropy
# [1] = biological target: panel of more than 300 wild-type and mutant kinases (313 kinase panel) (Homo sapiens, UniProt Q9H2G2); conditions: kinase SLK; 1 μM
# [2] = biological target: T1, panel of more than 300 wild-type and mutant kinases (313 kinase panel) (Homo sapiens, UniProt Q02156); conditions: kinase PKCε; 1 μM
# T1 sequence (Q02156 1-737): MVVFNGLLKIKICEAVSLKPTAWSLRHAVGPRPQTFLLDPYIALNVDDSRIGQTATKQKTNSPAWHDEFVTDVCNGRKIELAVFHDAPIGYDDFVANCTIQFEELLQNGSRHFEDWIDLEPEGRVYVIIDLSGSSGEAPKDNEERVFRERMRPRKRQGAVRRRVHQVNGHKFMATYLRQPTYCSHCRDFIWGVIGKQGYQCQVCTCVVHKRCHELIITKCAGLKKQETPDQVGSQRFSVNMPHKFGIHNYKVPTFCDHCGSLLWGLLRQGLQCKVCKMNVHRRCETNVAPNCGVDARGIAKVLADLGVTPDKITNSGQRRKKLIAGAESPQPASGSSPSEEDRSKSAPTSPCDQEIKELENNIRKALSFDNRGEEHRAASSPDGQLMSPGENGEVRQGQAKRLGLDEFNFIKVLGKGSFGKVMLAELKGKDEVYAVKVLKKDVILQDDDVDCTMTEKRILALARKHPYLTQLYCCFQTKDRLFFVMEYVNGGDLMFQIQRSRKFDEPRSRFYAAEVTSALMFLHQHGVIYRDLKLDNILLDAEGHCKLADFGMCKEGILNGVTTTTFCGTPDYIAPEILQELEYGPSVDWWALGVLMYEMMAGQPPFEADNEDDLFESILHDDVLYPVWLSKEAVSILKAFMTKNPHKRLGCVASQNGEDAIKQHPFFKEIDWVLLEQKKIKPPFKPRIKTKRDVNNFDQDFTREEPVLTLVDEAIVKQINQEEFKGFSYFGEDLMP
# [3] = biological target: T2, panel of more than 300 wild-type and mutant kinases (313 kinase panel) (Homo sapiens, UniProt Q9HBY8); conditions: kinase SGK2; 1 μM
# T2 sequence (Q9HBY8 1-367): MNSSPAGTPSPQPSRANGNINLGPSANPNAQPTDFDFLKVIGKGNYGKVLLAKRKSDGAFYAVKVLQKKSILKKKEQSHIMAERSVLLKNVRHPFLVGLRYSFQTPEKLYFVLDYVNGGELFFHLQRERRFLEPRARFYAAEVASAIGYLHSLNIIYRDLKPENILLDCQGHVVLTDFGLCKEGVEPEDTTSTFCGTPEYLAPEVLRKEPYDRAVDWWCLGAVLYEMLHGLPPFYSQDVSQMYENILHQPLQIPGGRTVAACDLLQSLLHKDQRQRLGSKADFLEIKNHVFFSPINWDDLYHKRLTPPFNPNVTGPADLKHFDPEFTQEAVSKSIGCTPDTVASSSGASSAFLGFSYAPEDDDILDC
# [4] = biological target: panel of more than 300 wild-type and mutant kinases (313 kinase panel) (Homo sapiens, UniProt Q16288); conditions: kinase TRKC; 1 μM
# [5] = biological target: panel of more than 300 wild-type and mutant kinases (313 kinase panel) (Homo sapiens, UniProt P07949); conditions: kinase RET; 1 μM
# Sequence of panel of more than 300 wild-type and mutant kinases (313 kinase panel) (Homo sapiens, UniProt P07949) (P07949 29-1114, change not shown): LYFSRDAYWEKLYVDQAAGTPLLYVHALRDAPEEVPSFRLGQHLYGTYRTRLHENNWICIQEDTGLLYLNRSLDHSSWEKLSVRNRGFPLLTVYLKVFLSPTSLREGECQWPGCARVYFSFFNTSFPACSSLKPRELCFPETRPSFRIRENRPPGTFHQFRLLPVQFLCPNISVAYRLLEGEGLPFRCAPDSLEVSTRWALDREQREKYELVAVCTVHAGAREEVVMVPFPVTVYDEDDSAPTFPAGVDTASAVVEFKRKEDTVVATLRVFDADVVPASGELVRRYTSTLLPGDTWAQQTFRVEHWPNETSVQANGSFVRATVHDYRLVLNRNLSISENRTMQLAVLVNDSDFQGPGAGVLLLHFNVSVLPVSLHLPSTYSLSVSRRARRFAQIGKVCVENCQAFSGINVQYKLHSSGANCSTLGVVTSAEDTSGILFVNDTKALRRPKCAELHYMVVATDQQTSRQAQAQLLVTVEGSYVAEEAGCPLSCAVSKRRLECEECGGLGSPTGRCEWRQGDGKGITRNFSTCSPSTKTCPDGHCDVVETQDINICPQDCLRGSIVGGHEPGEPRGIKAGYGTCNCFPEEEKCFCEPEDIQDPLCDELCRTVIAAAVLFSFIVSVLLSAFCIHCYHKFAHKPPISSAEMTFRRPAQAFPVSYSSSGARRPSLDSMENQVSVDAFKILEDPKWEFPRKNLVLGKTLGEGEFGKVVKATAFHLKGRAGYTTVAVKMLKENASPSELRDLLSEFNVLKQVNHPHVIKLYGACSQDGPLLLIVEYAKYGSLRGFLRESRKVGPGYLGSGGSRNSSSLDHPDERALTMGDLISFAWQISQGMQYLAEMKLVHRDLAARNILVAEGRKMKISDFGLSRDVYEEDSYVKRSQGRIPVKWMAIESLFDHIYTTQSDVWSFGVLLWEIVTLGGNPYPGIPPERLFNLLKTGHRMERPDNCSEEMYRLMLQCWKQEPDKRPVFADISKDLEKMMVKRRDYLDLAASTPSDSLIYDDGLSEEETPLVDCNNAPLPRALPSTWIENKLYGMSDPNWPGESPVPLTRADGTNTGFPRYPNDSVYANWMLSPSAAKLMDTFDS
# [6] = biological target: T3, panel of more than 300 wild-type and mutant kinases (313 kinase panel) (Homo sapiens, UniProt P51955); conditions: kinase NEK2; 1 μM
# T3 sequence (P51955 1-445): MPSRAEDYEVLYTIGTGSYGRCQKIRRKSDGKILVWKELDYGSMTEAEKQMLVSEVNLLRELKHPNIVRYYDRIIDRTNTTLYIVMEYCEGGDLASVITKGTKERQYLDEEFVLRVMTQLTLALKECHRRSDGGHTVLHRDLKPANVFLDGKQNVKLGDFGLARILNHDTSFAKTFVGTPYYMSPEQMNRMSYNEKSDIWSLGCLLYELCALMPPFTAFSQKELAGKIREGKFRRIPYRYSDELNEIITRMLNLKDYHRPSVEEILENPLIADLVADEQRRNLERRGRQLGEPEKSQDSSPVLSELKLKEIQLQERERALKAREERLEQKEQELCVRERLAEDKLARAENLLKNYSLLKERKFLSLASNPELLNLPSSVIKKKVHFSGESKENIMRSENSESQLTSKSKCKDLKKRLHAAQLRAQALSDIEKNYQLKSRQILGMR
# [7] = biological target: panel of more than 300 wild-type and mutant kinases (313 kinase panel) (Homo sapiens, UniProt P45983); conditions: kinase JNK1; compound at 1 μM
# Sequence of panel of more than 300 wild-type and mutant kinases (313 kinase panel) (Homo sapiens, UniProt P45983) (P45983 whole entry, change not shown): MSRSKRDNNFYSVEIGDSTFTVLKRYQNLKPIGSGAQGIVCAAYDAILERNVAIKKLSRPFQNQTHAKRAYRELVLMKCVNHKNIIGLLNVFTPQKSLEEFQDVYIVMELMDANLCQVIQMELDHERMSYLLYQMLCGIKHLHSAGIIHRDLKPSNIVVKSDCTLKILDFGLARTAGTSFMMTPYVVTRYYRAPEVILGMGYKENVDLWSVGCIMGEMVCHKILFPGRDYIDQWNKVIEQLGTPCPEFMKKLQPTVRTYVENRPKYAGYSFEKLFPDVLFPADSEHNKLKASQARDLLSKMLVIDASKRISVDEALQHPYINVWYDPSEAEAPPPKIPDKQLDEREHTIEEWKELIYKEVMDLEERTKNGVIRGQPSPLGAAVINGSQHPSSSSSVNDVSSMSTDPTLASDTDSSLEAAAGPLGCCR
# [8] = biological target: panel of more than 300 wild-type and mutant kinases (313 kinase panel) (Homo sapiens, UniProt Q07912); conditions: kinase ACK; 1 μM compound
# Sequence of panel of more than 300 wild-type and mutant kinases (313 kinase panel) (Homo sapiens, UniProt Q07912) (Q07912 whole entry, change not shown): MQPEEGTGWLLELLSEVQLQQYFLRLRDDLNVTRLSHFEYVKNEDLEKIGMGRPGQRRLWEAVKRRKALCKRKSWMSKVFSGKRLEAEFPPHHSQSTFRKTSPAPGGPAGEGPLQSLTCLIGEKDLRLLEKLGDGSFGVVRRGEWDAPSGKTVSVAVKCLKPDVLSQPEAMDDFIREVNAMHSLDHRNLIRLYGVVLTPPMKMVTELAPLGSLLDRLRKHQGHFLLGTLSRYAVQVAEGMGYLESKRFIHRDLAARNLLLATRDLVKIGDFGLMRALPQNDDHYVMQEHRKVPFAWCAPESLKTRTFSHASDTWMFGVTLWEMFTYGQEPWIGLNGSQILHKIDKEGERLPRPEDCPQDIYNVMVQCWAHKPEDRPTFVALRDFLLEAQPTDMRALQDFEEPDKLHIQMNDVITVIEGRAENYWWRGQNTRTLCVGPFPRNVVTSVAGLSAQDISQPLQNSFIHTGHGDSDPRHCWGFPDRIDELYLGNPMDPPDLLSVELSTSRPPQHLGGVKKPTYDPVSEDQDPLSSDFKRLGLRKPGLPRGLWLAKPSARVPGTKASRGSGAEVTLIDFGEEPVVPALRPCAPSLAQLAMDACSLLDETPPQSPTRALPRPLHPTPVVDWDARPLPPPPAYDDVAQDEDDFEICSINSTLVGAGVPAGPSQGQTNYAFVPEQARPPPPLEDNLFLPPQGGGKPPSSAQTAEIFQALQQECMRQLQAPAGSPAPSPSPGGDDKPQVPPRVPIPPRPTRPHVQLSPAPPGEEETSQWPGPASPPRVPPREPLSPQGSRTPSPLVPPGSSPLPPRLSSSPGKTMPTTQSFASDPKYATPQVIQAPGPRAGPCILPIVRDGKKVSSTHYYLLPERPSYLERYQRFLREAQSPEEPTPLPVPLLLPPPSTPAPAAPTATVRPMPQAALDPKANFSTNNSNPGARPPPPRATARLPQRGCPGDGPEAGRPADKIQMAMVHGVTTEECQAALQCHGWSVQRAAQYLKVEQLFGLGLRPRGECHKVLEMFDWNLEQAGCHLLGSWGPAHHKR
# [9] = biological target: panel of more than 300 wild-type and mutant kinases (313 kinase panel) (Homo sapiens, UniProt Q13627); conditions: kinase DYRK1A; compound at 1 μM
SMILES,%-inhibition of SLK [1],%-inhibition of PKCε [2],%-inhibition of SGK2 [3],%-inhibition of TRKC [4],%-inhibition of RET [5],%-inhibition of NEK2 [6],%-inhibition of JNK1 [7],"%-inhibition, ACK [8]",%-inhibition of DYRK1A [9]
CC(=O)Nc1cccc(-n2c(=O)n(C3CC3)c(=O)c3c(Nc4ccc(I)cc4F)n(C)c(=O)c(C)c32)c1 [trametinib],-2.6%,6%,-7%,-7.43%,-8%,2.76%,-4.68%,-5.39%,-1.23%
CO[C@H]1C[C@@H]2CC[C@@H](C)[C@@](O)(O2)C(=O)C(=O)N2CCCC[C@H]2C(=O)O[C@H]([C@H](C)C[C@@H]2CC[C@@H](OC(=O)C(C)(CO)CO)[C@H](OC)C2)CC(=O)[C@H](C)/C=C(\C)[C@@H](O)[C@@H](OC)C(=O)[C@H](C)C[C@H](C)/C=C/C=C/C=C/1C [temsirolimus],-4%,4.32%,-2.66%,-6.53%,-3%,-5%,-3.71%,-8%,-3%

# Reference: paper PMC3961306, “Comparison of the Cancer Gene Targeting and Biochemical Selectivities of All Targeted Kinase Inhibitors Approved for Clinical Use” (PLoS ONE, 2014)
